In brackets after ≈: the same amount, converted by molar mass. Where two headings read alike, the source gives them in different places.
Tests used:
Streptococcus pneumoniae = experiment: Susceptibility testing (MIC) Assay 1, broth microdilution; format: cell-based
Streptococcus pyogenes = experiment: as above; format: cell-based; conditions: Streptococcus pyogenes, in vivo strain, read-out: Spy MIC
Staphylococcus aureus = experiment: as above; format: cell-based; conditions: Staphylococcus aureus
Haemophilus influenzae = experiment: Susceptibility testing (MIC) Assay 2, broth microdilution; format: cell-based
Pseudomonas aeruginosa = experiment: as above; format: cell-based; conditions: PAO1, read-out: Pae MIC
Escherichia coli = experiment: as above; format: cell-based
Klebsiella pneumoniae = experiment: as above; format: cell-based
[1] = molecular target: Escherichia coli DNA gyrase A/B tetramer (Escherichia coli (strain K12), UniProt P0AES4+P0AES6); experiment: DNA gyrase supercoiling activity fluorescence polarisation assay; format: biochemical; conditions: Eco Gyr FP Mean IC50, E. coli DNA gyrase supercoiling, 0.3 mM ATP
Summary of the method: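 Relaxed triplex-forming plasmid (130 micrograms/mL) supercoiled by 5 nM gyrase A/B tetramer in Tris-HCl pH 7.5 buffer with 4 mM MgCl2 and 0.3 mM ATP, ~30 min, ambient temperature. Quenched with 5′-BODIPY-FL triplex probe at pH 3.5; fluorescence anisotropy read after 60 min. IC50 by nonlinear regression against two control reactions.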

Neisseria gonorrhoeae = experiment: MIC against 100 N. gonorrhoeae isolates, CLSI reference agar dilution; format: cell-based; conditions: all 100 N. gonorrhoeae isolates
[2] = test system: 7 S. aureus strains and 1 strain of Streptococcus pyogenes; experiment: Minimum bactericidal concentration (MBC); format: cell-based, Staphylococcus aureus; Streptococcus pyogenes; conditions: 7 S. aureus strains and 1 S. pyogenes strain
[3] = test system: variants of S. aureus and S. pyogenes ARC838; experiment: Susceptibility of Example 5 serial-passage variants to comparators; format: cell-based, Staphylococcus aureus; Streptococcus pyogenes; conditions: variants after twenty passages with Example 5
[4] = in vivo strain (footnote b), read-out: Spn(b) MIC
[5] = in vivo strain (footnote c), read-out: Spn(c) MIC
[6] = Staphylococcus aureus in vivo strain, MSQS, read-out: Sau(d) MIC
[7] = in vivo strain, MRQR, read-out: Sau(e) MIC
[8] = ATCC51907, Haemophilus influenzae, ATCC 51907, in vivo strain, read-out: Hin MIC
[9] = clinical isolate, mucoid, read-out: Kpn MIC
[10] = ATCC49619, Streptococcus pneumoniae, ATCC 49619, read-out: Spn(c) MIC
[11] = in vivo strain, read-out: Spn(b) MIC
[12] = ATCC29213, Staphylococcus aureus, in vivo strain, ATCC 29213, read-out: Sau(d) MIC
[13] = MRSA, in vivo strain, MRSA, read-out: Sau(f) MIC
[14] = ATCC49247, Haemophilus influenzae, ATCC 49247, read-out: Hin MIC
[15] = ATCC25922, Escherichia coli, in vivo strain, ATCC 25922, read-out: Eco(b) MIC
[16] = ATCC35218, Escherichia coli, ATCC 35218, read-out: Eco(c) MIC
[17] = ATCC700603, ATCC 700603, read-out: Kpn(e) MIC
[18] = clinical isolate, mucoid, read-out: Kpn(d) MIC
[19] = Neisseria gonorrhoeae, read-out: MIC50
[20] = Neisseria gonorrhoeae, read-out: MIC90

C[C@@H]1CN2c3c(cc4c(N5C(=O)OC[C@@H]5C=NO)noc4c3F)CC3(C(=O)NC(=O)NC3=O)[C@H]2[C@H](C)O1 [Example 74, (2R,4S,4aS)-11-fluoro-8-{(4S)-4-[(hydroxyimino)methyl]-2-oxo-1,3-oxazolidin-3-yl}-2,4-dimethyl-1,2,4,4a-tetrahydro-2′H,6H-spiro[1,4-oxazino[4,3-a][1,2]oxazolo[4,5-g]quinoline-5,5′-pyrimidine]-2′,4′,6′(1′H,3′H)-trione]
MIC (Streptococcus pneumoniae; [4]): 1.6 µM
MIC (Streptococcus pneumoniae; [5]): 1.6 µM
MIC (Streptococcus pyogenes; Streptococcus pyrgenes): 1.6 µM
MIC (Staphylococcus aureus; [6]): 6.2 µM
MIC (Staphylococcus aureus; [7]): 12 µM
MIC (Staphylococcus aureus; serum, read-out: Sau(f) MIC): 12 µM
MIC (Haemophilus influenzae; [8]): 0.78 µM
MIC (Pseudomonas aeruginosa): > 200 µM
MIC (Escherichia coli; K12, read-out: Eco MIC): 100 µM
MIC (Klebsiella pneumoniae; [9]): > 200 µM
IC50 [1]: 470 nM

C[C@@H]1CN2c3c(cc4c(N5C[C@H](C#N)OC5=O)noc4c3F)CC3(C(=O)NC(=O)NC3=O)[C@H]2[C@H](C)O1 [Example 75, (5R)-3-[(2R,4S,4aS)-11-Fluoro-2,4-dimethyl-2′,4′,6′-trioxo-1,1′,2,3′,4,4′,4a,6′-octahydro-2′H,6H-spiro[1,4-oxazino[4,3-a][1,2]oxazolo[4,5-g]quinoline-5,5′-pyrimidin]-8-yl]-2-oxo-1,3-oxazolidine-5-carbonitrile]
MIC (Streptococcus pneumoniae; [4]): 0.78 µM
MIC (Streptococcus pneumoniae; [5]): 1.62 µM
MIC (Streptococcus pyogenes; Streptococcus pyrgenes): 0.55 µM
MIC (Staphylococcus aureus; [6]): 0.28 µM
MIC (Staphylococcus aureus; [7]): 2.2 µM
MIC (Staphylococcus aureus; serum, read-out: Sau(f) MIC): 0.39 µM
MIC (Haemophilus influenzae; [8]): 0.78 µM
MIC (Pseudomonas aeruginosa): > 200 µM
MIC (Escherichia coli; K12, read-out: Eco MIC): 100 µM
MIC (Klebsiella pneumoniae; [9]): > 200 µM
IC50 [1]: 710 nM

C[C@@H]1CN2c3c(cc4c(N5C[C@@H](C#N)OC5=O)noc4c3F)CC3(C(=O)NC(=O)NC3=O)[C@H]2[C@H](C)O1 [Example 76, (5S)-3-[(2R,4S,4aS)-11-fluoro-2,4-dimethyl-2′,4′,6′-trioxo-1,1′,2,3′,4,4′,4a,6′-octahydro-2′H,6H-spiro[1,4-oxazino[4,3-a][1,2]oxazolo[4,5-g]quinoline-5,5′-pyrimidin]-8-yl]-2-oxo-1,3-oxazolidine-5-carbonitrile]
MIC (Streptococcus pneumoniae; [4]): 0.39 µM
MIC (Streptococcus pneumoniae; [5]): 0.78 µM
MIC (Streptococcus pyogenes; Streptococcus pyrgenes): 0.39 µM
MIC (Staphylococcus aureus; [6]): 0.39 µM
MIC (Staphylococcus aureus; [7]): 1.6 µM
MIC (Staphylococcus aureus; serum, read-out: Sau(f) MIC): 0.78 µM
MIC (Haemophilus influenzae; [8]): 0.78 µM
MIC (Pseudomonas aeruginosa): > 200 µM
MIC (Escherichia coli; K12, read-out: Eco MIC): 50 µM
MIC (Klebsiella pneumoniae; [9]): > 200 µM
IC50 [1]: 550 nM

C[C@@H]1CN2c3c(cc4c(N5C(=O)OC[C@@H]5[C@@H](C)O)noc4c3F)CC3(C(=O)NC(=O)NC3=O)[C@H]2[C@H](C)O1 [Example 77]
MIC (Streptococcus pneumoniae; [4]): 0.78 µM
MIC (Streptococcus pneumoniae; [5]): 0.78 µM
MIC (Streptococcus pyogenes; Streptococcus pyrgenes): 0.78 µM
MIC (Staphylococcus aureus; [6]): 3.1 µM
MIC (Staphylococcus aureus; [7]): 12 µM
MIC (Staphylococcus aureus; serum, read-out: Sau(f) MIC): 6.2 µM
MIC (Haemophilus influenzae; [8]): 0.78 µM
MIC (Pseudomonas aeruginosa): > 200 µM
MIC (Escherichia coli; K12, read-out: Eco MIC): 200 µM
MIC (Klebsiella pneumoniae; [9]): > 200 µM
IC50 [1]: 530 nM

C[C@@H]1CN2c3c(cc4c(N5C(=O)O[C@H](C)[C@@H]5CF)noc4c3F)CC3(C(=O)NC(=O)NC3=O)[C@H]2[C@H](C)O1 [Example 78, (2R,4S,4aS)-11-Fluoro-8-((4R,5R)-4-(fluoromethyl)-5-methyl-2-oxooxazolidin-3-yl)-2,4-dimethyl-2,4,4a,6-tetrahydro-1H,1′H-spiro[isoxazolo[4,5-g][1,4]oxazino[4,3-a]quinoline-5,5′-pyrimidine]-2′,4′,6′(3′H)-trione]
MIC (Streptococcus pneumoniae; [10]): 2 µg/mL
MIC (Streptococcus pneumoniae; [11]): 2 µg/mL
MIC (Streptococcus pyogenes; Streptococcus pyrogenes): 1 µg/mL
MIC (Staphylococcus aureus; [12]): 1 µg/mL
MIC (Staphylococcus aureus; [13]): 1 µg/mL
MIC (Staphylococcus aureus; [7]): 2 µg/mL
MIC (Haemophilus influenzae; [14]): 2 µg/mL
MIC (Pseudomonas aeruginosa; Pseudomonoas aeruginosa): > 64 µg/mL
MIC (Escherichia coli; [15]): 16 µg/mL
MIC (Escherichia coli; [16]): 32 µg/mL
MIC (Klebsiella pneumoniae; [17]): > 64 µg/mL
MIC (Klebsiella pneumoniae; [18]): > 64 µg/mL
IC50 [1]: 440 nM

COC[C@H]1[C@@H](C)OC(=O)N1c1noc2c(F)c3c(cc12)CC1(C(=O)NC(=O)NC1=O)[C@H]1[C@H](C)O[C@H](C)CN31 [Example 79, (2R,4S,4aS)-11-fluoro-8-((4S,5R)-4-(methoxymethyl)-5-methyl-2-oxooxazolidin-3-yl)-2,4-dimethyl-2,4,4a,6-tetrahydro-1H,1′H-spiro[isoxazolo[4,5-g][1,4]oxazino[4,3-a]quinoline-5,5′-pyrimidine]-2′,4′,6′(3′H)-trione]
MIC (Streptococcus pneumoniae; [10]): 1 µg/mL
MIC (Streptococcus pneumoniae; [11]): 2 µg/mL
MIC (Streptococcus pyogenes; Streptococcus pyrogenes): 1 µg/mL
MIC (Staphylococcus aureus; [12]): 1 µg/mL
MIC (Staphylococcus aureus; [13]): 1 µg/mL
MIC (Staphylococcus aureus; [7]): 2 µg/mL
MIC (Haemophilus influenzae; [14]): 0.5 µg/mL
MIC (Pseudomonas aeruginosa; Pseudomonoas aeruginosa): > 64 µg/mL
MIC (Escherichia coli; [15]): 32 µg/mL
MIC (Escherichia coli; [16]): 64 µg/mL
MIC (Klebsiella pneumoniae; [17]): > 64 µg/mL
MIC (Klebsiella pneumoniae; [18]): > 64 µg/mL
IC50 [1]: > 2100 nM

COC[C@@H]1[C@@H](C)OC(=O)N1c1noc2c(F)c3c(cc12)CC1(C(=O)NC(=O)NC1=O)[C@H]1[C@H](C)O[C@H](C)CN31 [Example 80, (2R,4S,4aS)-11-fluoro-8-((4R,5R)-4-(methoxymethyl)-5-methyl-2-oxooxazolidin-3-yl)-2,4-dimethyl-2,4,4a,6-tetrahydro-1H,1′H-spiro[isoxazolo[4,5-g][1,4]oxazino[4,3-a]quinoline-5,5′-pyrimidine]-2′,4′,6′(3′H)-trione]
MIC (Streptococcus pneumoniae; [10]): 32 µg/mL
MIC (Streptococcus pneumoniae; [11]): 64 µg/mL
MIC (Streptococcus pyogenes; Streptococcus pyrogenes): 16 µg/mL
MIC (Staphylococcus aureus; [12]): 16 µg/mL
MIC (Staphylococcus aureus; [13]): 16 µg/mL
MIC (Staphylococcus aureus; [7]): 32 µg/mL
MIC (Haemophilus influenzae; [14]): 1 µg/mL
MIC (Pseudomonas aeruginosa; Pseudomonoas aeruginosa): > 64 µg/mL
MIC (Escherichia coli; [15]): > 64 µg/mL
MIC (Escherichia coli; [16]): > 64 µg/mL
MIC (Klebsiella pneumoniae; [17]): > 64 µg/mL
MIC (Klebsiella pneumoniae; [18]): > 64 µg/mL
IC50 [1]: 170 nM

CC[C@H]1OC(=O)[C@H](C)[C@@H](O[C@H]2C[C@@](C)(OC)[C@@H](O)[C@H](C)O2)[C@H](C)[C@@H](O[C@@H]2O[C@H](C)C[C@H](N(C)C)[C@H]2O)[C@](C)(O)C[C@@H](C)CN(C)[C@H](C)[C@@H](O)[C@]1(C)O [azithromycin, reference compound]
MIC50 (Neisseria gonorrhoeae; [19]): 0.25 µg/mL (≈ 0.334 µM)
MIC90 (Neisseria gonorrhoeae; [20]): 0.5 µg/mL (≈ 0.668 µM)

C=CC1=C(C(=O)O)N2C(=O)[C@@H](NC(=O)/C(=N\OCC(=O)O)c3csc(N)n3)[C@H]2SC1 [cefixime, reference compound]
MIC50 (Neisseria gonorrhoeae): 0.03 µg/mL (≈ 0.0662 µM)
MIC90 (Neisseria gonorrhoeae): 0.06 µg/mL (≈ 0.132 µM)

CO/N=C(\C(=O)N[C@@H]1C(=O)N2C(C(=O)O)=C(CSc3nc(=O)c(O)nn3C)CS[C@H]12)c1csc(N)n1 [ceftriaxone, reference compound]
MIC50 (Neisseria gonorrhoeae): 0.015 µg/mL (≈ 0.027 µM)

CO/N=C(\C(=O)N[C@@H]1C(=O)N2C(C(=O)O)=C(CSc3nc(=O)c(O)nn3C)CS[C@H]12)c1csc(N)n1 [ceftriazone, reference compound]
MIC90 (Neisseria gonorrhoeae): 0.06 µg/mL (≈ 0.108 µM)

C[C@H]1COc2c(N3CCN(C)CC3)c(F)cc3c(=O)c(C(=O)O)cn1c23 [levofloxacin]
minimum bactericidal concentrations (MBCs) relative to the MIC [2]: ≤ 2 fold
change in susceptibility of Example 5-selected variants [3]: ≤ 4 fold

CC(=O)NC[C@H]1CN(c2ccc(N3CCOCC3)c(F)c2)C(=O)O1 [linezolid]
change in susceptibility of Example 5-selected variants [3]: ≤ 4 fold

CC1(C)S[C@@H]2[C@H](NC(=O)Cc3ccccc3)C(=O)N2[C@H]1C(=O)O [penicillin, reference compound]
MIC50 (Neisseria gonorrhoeae; [19]): 2 µg/mL (≈ 5.98 µM)
MIC90 (Neisseria gonorrhoeae; [20]): > 2 µg/mL

CN(C)[C@@H]1C(=O)C(C(N)=O)=C(O)[C@@]2(O)C(=O)C3=C(O)c4c(O)cccc4[C@@](C)(O)[C@H]3C[C@@H]12 [tetracycline, reference compound]
MIC50 (Neisseria gonorrhoeae): 1 µg/mL (≈ 2.25 µM)
MIC90 (Neisseria gonorrhoeae): 2 µg/mL (≈ 4.5 µM)

CN[C@H](CC(C)C)C(=O)N[C@H]1C(=O)N[C@@H](CC(N)=O)C(=O)N[C@H]2C(=O)N[C@H]3C(=O)N[C@H](C(=O)N[C@H](C(=O)O)c4cc(O)cc(O)c4-c4cc3ccc4O)[C@H](O)c3ccc(c(Cl)c3)Oc3cc2cc(c3O[C@@H]2O[C@H](CO)[C@@H](O)[C@H](O)[C@H]2O[C@H]2C[C@](C)(N)[C@H](O)[C@H](C)O2)Oc2ccc(cc2Cl)[C@H]1O [vancomycin]
minimum bactericidal concentrations (MBCs) relative to the MIC [2]: ≤ 2 fold
change in susceptibility of Example 5-selected variants [3]: ≤ 4 fold

Reference: patent US8889671B2, “Compounds and methods for treating bacterial infections” (AstraZeneca AB, priority 2013, dated 2014)
